The record followed here is patent publication US20220160703A1, “TUMOR-SELECTIVE COMBINATION THERAPY” (The Board of Regents of The University of Texas System, priority 2019, published 2022).

In assay [1] the test system is A549 tumor. Nature of the assay: A549 xenograft in immune-reconstituted C57BL/6 Rag1−/− mice. The class given is in vivo. The settings on record: β-lap 0.2 mg i.t. four times. The method, then:
FIGS. 2A-F. β-Lap's antitumor effect is CD8^+ T cell dependent. (FIG. 2A) MC38 cells were subcutaneously transplanted into C57BL/6 WT (n=5-6/group) and Rag1 KO mice (n=5/group), respectively. Tumor bearing mice were treated with β-lap (0.3 mg, i.t.) every other day for four times. Numbers of tumor free mice after treatment were shown. (FIG. 2B) MC38 tumor bearing C57BL/6 mice (n=5/group) were treated with β-lap (0.3 mg, i.t.) every other day for four times. For CD8^+ T cell depletion, 200 μg of anti-CD8 antibodies were intraperitoneally injected four times at three days interval during the treatment. (FIG. 2C) TC-1 tumor bearing C57BL/6 mice (n=4-5/group) were treated with β-lap (0.1 mg, i.t.) for four times with or without anti-CD8 antibodies. (FIG. 2D) Naïve (n=5/group) and β-lap cured MC38 tumor free (n=7/group) C57BL/6 mice were rechallenged subcutaneously with 3×10^6 MC38 cells on the opposite site from the primary tumor 30 days after complete rejection, and tumor growth curve was monitored. […] Tumor growth was measured twice a week. Data are shown as mean±SEM from three independent experiments. **P<0.01, ***P<0.001, ****P<0.0001 determined by two-way ANOVA.
Immune reconstituted mouse models. […] Tumor volumes were measured at least twice weekly.

Assay [2] concerns NQO1 negative cell lines Panc02 and B16. Nature of the assay: Cell viability/survival of NQO1 negative murine tumor lines (SRB). The format is cell-based. The settings on record: β-lap 0-8 μM, SRB 4 days later. On the procedure:
(FIG. 1A) NQO1 positive tumor cell lines MC38, TC-1 and Ag104Ld and NQO1 negative cell lines Panc02 and B16 grown in 48-well plates were treated with β-lap (0-8 μM) for a 3 hr followed by washing and replacing medium. Cell viability was determined by Sulforhodamine B (SRB) Assay 4 days later. […] (FIG. 1C) MC38 cells with CRISPR-based NQO1 Knockout (MC38 NQO1KO #5) planted in 96-well plates were exposed to β-lap for 3 hr and cell survival was assessed 48 hr later. […] (FIG. 1E) MC38 cells were exposed to a lethal dose of β-lap (4 μM) for indicated times, then stained with 7-AAD and Annexin V followed by flow cytometry analysis. […] (FIG. 1H) MC38 and B16 NQO1 #1 cells were exposed to β-lap for a 3 hr. Catalase (1000 U/ml) was added and cell survival was assessed 48 hr later. […] Tumor growth was monitored twice a week.
(FIG. 8A) NQO1 expression in multiple murine tumor lines was immunoblotted as indicated. […] Drugs were removed and survival assessed 5 days later. (FIG. 8C) Relative H2O2 levels were assessed in various cells treated with β-lap for 3 h at the indicated doses using CellRox-Glo. […] (FIG. 8D) TC-1 cells exposure to β-lap for 12 h, later PARP-1 and Caspase-3 levels were analyzed by western blotting assay. […]
(FIGS. 14A-C) NQO1 cells MC38 (A) and TC-1 (B) and NQO1^− cells B16 (C) were treated for 2 h with various doses of IB-DNQ±DIC (50 μM). Drugs were removed and survival assessed 6 days later. […]

Regarding `CC1(C)CCC2=C(O1)c1ccccc1C(=O)C2=O` [β-lap, β-lapachone], in assay [1] (no OT-1 LN cells), the “tumor growth without T cell transfer” value is reported as “only partially inhibited”. Further, the tumors completely rejected in assay [1] (with 2×10^6 OT-1 LN cells) is 50%. Besides, the “response to 3 h β-lap exposure (cell viability)” value in assay [2] is given as “resistant”.
